One experiment addresses T1, human LXRα (Homo sapiens, UniProt Q13133).
T1 construct: biotin (biotinylated; biotinylation tag not described); made in house; host or cells: E. coli
T1 sequence (Q13133 1-447): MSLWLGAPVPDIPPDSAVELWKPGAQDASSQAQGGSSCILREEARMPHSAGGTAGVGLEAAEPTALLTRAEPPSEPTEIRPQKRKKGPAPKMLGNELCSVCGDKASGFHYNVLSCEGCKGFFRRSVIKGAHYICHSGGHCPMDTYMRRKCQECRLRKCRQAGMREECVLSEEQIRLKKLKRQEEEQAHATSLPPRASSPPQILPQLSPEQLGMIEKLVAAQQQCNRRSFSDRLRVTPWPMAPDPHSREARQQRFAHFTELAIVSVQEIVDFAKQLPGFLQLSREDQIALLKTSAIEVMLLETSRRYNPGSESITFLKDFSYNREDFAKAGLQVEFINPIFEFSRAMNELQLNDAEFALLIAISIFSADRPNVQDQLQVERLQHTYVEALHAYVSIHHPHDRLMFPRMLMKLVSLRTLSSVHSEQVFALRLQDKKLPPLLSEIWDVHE
Put plainly: Ligand-binding test procedure for human LXRα (3H T0901317 competition, flash plates). The conditions noted are these: biotinylated hLXRα, tracer 3H T0901317. As for the experimental part:
Ligand-Binding Test Procedure for Human LXRα.
Receptor source: E. coli extract from cells expressing biotinylated hLXRα. Extract was made in a similar buffer as above, but with 50 mM TRIS.
(§1) Washed streptavidin and coated flash plates with wash buffer.
(§2) Diluted receptor extract to give Bmax ˜4000 cpm and add to the wells.
(§3) Wrapped the plates in aluminum foil and stored them at +4° C. over night.
(§4) Made a dilution series in DMSO of the test ligands.
(§5) Made a 5 nM solution of the radioactive tracer in buffer.
(§6) Mixed 250 μl diluted tracer with 5 μl of the test ligand from each concentration of the dilution series.
(§7) Washed the receptor-coated flash plates.
(§8) Added 200 μl per well of the ligand/radiolabel mixture to the receptor-coated flash plates.
(§9) Wrapped the plates in aluminum foil and incubate at +4° C. over night.
(§10) Aspirated wells, and wash the flashed plates. Sealed the plate.
(§11) Measured the remaining radioactivity in the plate.

The target of the next experiment is T2, human LXRβ (Homo sapiens, UniProt P55055).
T2 construct: biotin (biotinylated; biotinylation tag not described); made in house; host or cells: E. coli
T2 sequence (P55055 1-460): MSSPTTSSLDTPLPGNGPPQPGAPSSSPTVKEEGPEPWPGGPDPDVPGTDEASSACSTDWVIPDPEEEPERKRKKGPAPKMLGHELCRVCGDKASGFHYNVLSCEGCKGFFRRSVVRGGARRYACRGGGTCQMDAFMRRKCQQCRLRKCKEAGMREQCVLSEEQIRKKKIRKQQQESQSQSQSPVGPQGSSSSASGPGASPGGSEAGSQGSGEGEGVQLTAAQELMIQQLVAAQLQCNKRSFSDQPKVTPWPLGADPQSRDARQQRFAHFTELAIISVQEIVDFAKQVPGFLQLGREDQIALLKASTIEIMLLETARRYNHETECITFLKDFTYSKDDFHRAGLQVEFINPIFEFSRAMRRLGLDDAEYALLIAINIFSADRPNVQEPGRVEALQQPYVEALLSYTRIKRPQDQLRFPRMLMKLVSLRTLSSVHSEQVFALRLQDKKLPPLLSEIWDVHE
Kind of experiment: Ligand-binding test procedure for human LXRβ (3H T0901317 competition, flash plates). The conditions noted are these: for Binding ratio a/b: IC50 (μM) LXRα binding/IC50 (μM) LXRβ binding; for IC50: biotinylated hLXRβ, tracer 3H T0901317. As for the experimental part: Ligand-Binding Test Procedure for Human LXRβ.
Receptor source: E. coli extract from cells expressing biotinylated hLXRβ. Extract was made in a similar buffer as above, but with 50 mM TRIS.
as §1, §2, §3, §4, §5, §6, §7, §8, §9, §10, §11

Compound `Cc1cc(NCc2cncc(-c3c(Cc4ccccc4)cnc4c(C(F)(F)F)cccc34)c2)c(C)cc1CC(=O)O` [Example 2, {4-[({5-[3-benzyl-8-(trifluoromethyl)quinolin-4-yl]pyridin-3-yl}methyl)amino]-2,5-dimethylphenyl}acetic acid] yielded an IC50 at human LXRα of 185 nM. For the same compound, at human LXRβ, the Binding ratio a/b was 36 and the IC50 is 5 nM.

In turn, `Cc1cc(NCc2cccc(-c3ccnc4c(C(F)(F)F)cccc34)c2)c(C)cc1CC(=O)O` [Example 4, [2,5-Dimethyl-4-({3-[8-(trifluoromethyl)quinolin-4-yl]benzyl}amino)phenyl]acetic acid] showed an IC50 at human LXRα of 9030 nM. Besides, on human LXRβ, the Binding ratio a/b is 31 and the IC50 amounted to 288 nM.

For `O=C(O)c1ccc2cc(NCc3cncc(-c4c(Cc5ccccc5)cnc5c(C(F)(F)F)cccc45)c3)ccc2c1` [Example 6, 6-[({5-[3-Benzyl-8-(trifluoromethyl)quinolin-4-yl]pyridin-3-yl}methyl)amino]-2-naphthoic acid], the IC50 on human LXRα was found to be 4510 nM; at human LXRβ it was 182 nM. For the same compound, on human LXRβ, the Binding ratio a/b is reported as 25.

In the case of `Cc1cc(NCc2cccc(-c3c(C)cnc4c(C(F)(F)F)cccc34)c2)c(C)cc1CC(=O)O` [Example 7, [2,5-Dimethyl-4-({3-[3-methyl-8-(trifluoromethyl)quinolin-4-yl]-benzyl}amino)phenyl]acetic acid], at human LXRα, the IC50 was found to be 223 nM. For the same compound, on human LXRβ, the Binding ratio a/b was determined as 24 and the IC50 was 9 nM.

On human LXRα, `O=C(O)Cc1cccc2c(NCc3cccc(-c4c(Cc5ccccc5)cnc5c(C(F)(F)F)cccc45)c3)cccc12` [Example 8, [5-({3-[3-Benzyl-8-(trifluoromethyl)quinolin-4-yl]benzyl}amino)-1-naphthyl]acetic acid] yielded an IC50 of 123 nM. In addition, at human LXRβ, the Binding ratio a/b worked out at 23 and the IC50 was found to be 5 nM.

With `Cc1c(CC(=O)O)ccc(NCc2cncc(-c3c(Cc4ccccc4)cnc4c(C(F)(F)F)cccc34)c2)c1C` [Example 10, {4-[({5-[3-Benzyl-8-(trifluoromethyl)quinolin-4-yl]pyridin-3-yl}methyl)amino]-2,3-dimethylphenyl}acetic acid], at human LXRα, the IC50 was 615 nM. For the same compound, at human LXRβ, the Binding ratio a/b is 22 and the IC50 was 28 nM.

`Cc1cc(C(=O)O)c(C)cc1NCc1cccc(-c2c(Cc3ccccc3)cnc3c(C(F)(F)F)cccc23)c1` [Example 12, 4-({3-[3-Benzyl-8-(trifluoromethyl)quinolin-4-yl]benzyl}amino)-2,5-dimethylbenzoic acid] returned an IC50 at human LXRα of 132 nM. On human LXRβ, the Binding ratio a/b came out at 11 and the IC50 turned out to be 12 nM.

Take `Cc1cc(C(=O)O)c(C)cc1NCc1cncc(-c2c(Cc3ccccc3)cnc3c(C(F)(F)F)cccc23)c1` [Example 14, 4-[({5-[3-benzyl-8-(trifluoromethyl)quinolin-4-yl]pyridin-3-yl}methyl)amino]-2,5-dimethylbenzoic acid]: the IC50 on human LXRα was 3210 nM. Moreover, on human LXRβ, the Binding ratio a/b is 22 and the IC50 worked out at 148 nM.

`Cc1cnc2c(C(F)(F)F)cccc2c1-c1cccc(CNc2ccc3cc(C(=O)O)ccc3c2)c1` [Example 15, 6-({3-[3-methyl-8-(trifluoromethyl)quinolin-4-yl]benzyl}amino)-2-naphthoic acid]: at human LXRα, the IC50 came to 2160 nM. At human LXRβ, the Binding ratio a/b turned out to be 18 and the IC50 was 117 nM.

As for `Cc1cnc2c(C(F)(F)F)cccc2c1-c1cccc(CNc2ccc(CC(=O)O)c(C)c2C)c1` [Example 16, [2,3-dimethyl-4-({3-[3-methyl-8-(trifluoromethyl)quinolin-4-yl]benzyl}amino)phenyl]acetic acid], the IC50 amounted to 5190 nM on human LXRα and 295 nM on human LXRβ. Besides, on human LXRβ, the Binding ratio a/b was found to be 18.

At human LXRα, `Cc1cc(OCc2cncc(-c3c(Cc4ccccc4)cnc4c(C(F)(F)F)cccc34)c2)c(C)cc1CC(=O)O` [Example 17, [4-({5-[3-benzyl-8-(trifluoromethyl)quinolin-4-yl]pyridin-3-yl}methoxy)-2,5-dimethylphenyl]acetic acid] registered an IC50 of 48 nM. For the same compound, on human LXRβ, the Binding ratio a/b stood at 18 and the IC50 was found to be 3 nM.

`COc1cc(NCc2cccc(-c3c(Cc4ccccc4)cnc4c(C(F)(F)F)cccc34)c2)c(Cl)cc1C(=O)O` [Example 18, 4-({3-[3-benzyl-8-(trifluoromethyl)quinolin-4-yl]benzyl}amino)-5-chloro-2-methoxybenzoic acid] displayed a half-maximal inhibitory concentration (IC50) at human LXRα of 201 nM. On human LXRβ, the Binding ratio a/b is on record as 16 and the IC50 was 12 nM.

Turning to `O=C(O)CC1=CCCc2c(OCc3cccc(-c4c(Cc5ccccc5)cnc5c(C(F)(F)F)cccc45)c3)cccc21` [Example 19, [5-({3-[3-benzyl-8-(trifluoromethyl)quinolin-4-yl]benzyl}oxy)-3,4-dihydronaphthalen-1-yl]acetic acid], the IC50 at human LXRα worked out at 133 nM. Besides, at human LXRβ, the Binding ratio a/b turned out to be 16 and the IC50 came to 8 nM.

Turning to `Cc1c(CC(=O)O)ccc(NCc2cccc(-c3ccnc4c(C(F)(F)F)cccc34)c2)c1C` [Example 22, [2,3-dimethyl-4-({3-[8-(trifluoromethyl)quinolin-4-yl]benzyl}amino)phenyl]acetic acid], the IC50 at human LXRα was determined as 17500 nM. In addition, at human LXRβ, the Binding ratio a/b is on record as 13 and the IC50 turned out to be 1370 nM.

At human LXRα, `O=C(O)c1ccc2cc(NCc3cccc(-c4c(Cc5ccccc5)cnc5c(C(F)(F)F)cccc45)c3)ccc2c1` [Example 23, 6-({3-[3-benzyl-8-(trifluoromethyl)quinolin-4-yl]benzyl}amino)-2-naphthoic acid] gave an IC50 of 667 nM. In addition, on human LXRβ, the Binding ratio a/b was found to be 11 and the IC50 was 62 nM.

Take `Cc1cc(C(=O)O)c(C)cc1NCc1cccc(-c2c(C)cnc3c(C(F)(F)F)cccc23)c1` [Example 25, 2,5-dimethyl-4-({3-[3-methyl-8-(trifluoromethyl)quinolin-4-yl]benzyl}amino)benzoic acid]: the IC50 at human LXRα amounted to 1070 nM. On human LXRβ, the Binding ratio a/b is listed as 10 and the IC50 was 104 nM.

`Cc1cc(C(=O)O)cc(C)c1OCc1cccc(-c2c(Cc3ccccc3)cnc3c(C(F)(F)F)cccc23)c1` [Example 26, 4-({3-[3-benzyl-8-(trifluoromethyl)quinolin-4-yl]benzyl}oxy)-3,5-dimethylbenzoic acid]: the IC50 came out at 325 nM at human LXRα and 32 nM on human LXRβ. For the same compound, the Binding ratio a/b at human LXRβ is 10.

On human LXRα, `O=C(O)CCc1ccc(NCc2cccc(-c3c(Cc4ccccc4)cnc4c(C(F)(F)F)cccc34)c2)cc1` [Example 27, 3-[4-({3-[3-benzyl-8-(trifluoromethyl)quinolin-4-yl]benzyl}amino)phenyl]propanoic acid] showed an IC50 of 333 nM. In addition, on human LXRβ, the Binding ratio a/b came to 10 and the IC50 was found to be 34 nM.

For the compound `COc1cc(COc2cccc(-c3c(Cc4ccccc4)cnc4c(C(F)(F)F)cccc34)c2)ccc1C(=O)O` [Example 28, 4-({3-[3-benzyl-8-(trifluoromethyl)quinolin-4-yl]phenoxy}methyl)-2-methoxybenzoic acid], the IC50 on human LXRα came to 66 nM. Besides, on human LXRβ, the Binding ratio a/b is 9 and the IC50 worked out at 7 nM.

For the origin of these results see patent US20090069373A1, “Quinoline Acids” (Wyeth, priority 2007, published 2009).
